# According to patent US10543189B2, “2-acetylnaphtho[2,3-b]furan -4,9-dione for use on treating cancer” (Boston Biomedical, Inc., priority 2013, dated 2020):
# Like-named read-outs stand apart in the source and are kept apart here.
# Legend:
# [1] = Safety of highly pure Compound 1 in animal experiments; type: in vivo; conditions: highly pure Compound 1, mice
# Protocol: For example, FIG. 13 of WO 2011/116398 and WO 2011/116399 illustrates the toxicity observed with a composition with about 90% purity for Compound 1, while FIG. 14 of WO 2011/116398 and WO 2011/116399 illustrates that the highly pure compositions having about 95% or greater purity for Compound 1 are safe and effective. In a Phase 1 study, the dose of Compound 1 was escalated from 20 mg to 2000 mg/day, and a maximum tolerated dose (MTD) not reached. […] The clinical safety profile of the substantially pure compositions of Compound 1 is among the best for oncology drugs in history.
# [2] = Phase I dose escalation trial: pharmacokinetic profile; type: in vivo, human; conditions: for Tmax / AUC(0-t) / concentration at 24 h / half-life / Cmax / AUC: human, plasma, oral, patient plasma; for AUC(0-t): read-out: AUC0-24; for concentration at 24 h: read-out: C24h; for half-life: read-out: T1/2,t (converted)
# Protocol: Pharmacokinetics profile with oral bid dosing was also studied. The plasma concentration of the drug reached several folds over the efficacious concentration (in vitro IC50) as illustrated in Table 8.
# To maintain drug plasma concentration at or above the efficacious level for a desirable duration and to further increase peak plasma concentration, we studied the pharmacokinetics of a 500 mg BID regimen (at 4 hour interval between two doses on the same day or “q4h”), and compared it to that of a 500 mg QD regimen (FIG. 1). […] In another suitable dosing regimen, 500 mg of Compound 1 were administered three times a day (TID) to human subjects.
# [3] = Phase 1 extension study of higher strength capsule (DP2A): pharmacokinetics; type: in vivo; conditions: human, plasma, oral, 500 mg; for AUC(0-t): read-out: AUC0-24
# From the text: However, with the higher strength capsules, we observed worsening gastrointestinal adverse effects including nausea, vomiting, and diarrhea in patients.
# Additional studies were run using an oral formulation of the Compound of the Invention, specifically a higher strength capsule formulation (DP2A). As described herein, the Compound of the Invention blocks cancer stem cell (CSC) self-renewal and induces cell death in CSC as well as non-stem cancer cells by inhibiting Stat3, β-catenin, and Nanog pathways, and has shown potent anti-tumor and anti-metastatic activities pre-clinically. […] The studies described herein were designed as a phase 1 extension study to evaluate a formulation designed for pivotal trials to determine pharmacokinetics (PK) in patients with advanced cancer.
# On Day 1, patients received a single 500 mg dose of an oral administration formulation of the Compound of the Invention (DP1). On Day 4 and Day 8, a higher strength capsule designed for pivotal trials (DP2A) was given with fasting then fed conditions. DP2A was then administered daily until disease progression or unacceptable toxicity. Endpoints were safety, PK and preliminary anticancer activity.
# β-catenin = β-catenin protein levels in cancer cell lines; type: cell-based; conditions: in vitro within cancer cell lines
# From the text: Understanding the clinical relevance of the cancer stemness markers and identifying their predictive response to the Compound of the Invention is used herein to assist clinical development by selecting patients that will most likely to derive clinical benefit. In some embodiments, the methods provided herein use one or more well-known cancer stemness marker(s), such as, for example, the expression of p-STAT3 and/or other cancer stem cell related proteins such as β-catenin and NANOG. All these proteins can be easily detected using any of a variety of art-recognized techniques. In some embodiments, the cancer sternness marker is detected with immunohistochemistry with antibodies. Using the archival tissue samples collected from the phase I trial with the Compound of the Invention, the patient response to the Compound of the Invention was analyzed based on biomarker status. […] A significant improvement in survival was detected for patients with nuclear β-Catenin localization compared with patients having β-catenin localized to the cell membrane, HR=0.043, p value <0.001. As further evidence, in an in vitro study screening a panel of cancer cells, the cell lines with nuclear β-Catenin show a lower IC50 for the Compound of the Invention. […] Thus, STAT3 activation is involved in nuclear β-catenin regulation. […]
# [4] = 20 mg, Total Daily Dose 20 (mg), qd
# [5] = 40 mg, Total Daily Dose 40 (mg), qd
# [6] = 80 mg, Total Daily Dose 80 (mg), bid q4h
# [7] = 80 mg, Total Daily Dose 80 (mg), qd
# [8] = 160 mg, Total Daily Dose 160 (mg), bid q4h
# [9] = 320 mg, Total Daily Dose 320 (mg), bid q4h
# [10] = 400 mg, Total Daily Dose 400 (mg), bid q4h
# [11] = 600 mg, Total Daily Dose 600 (mg), bid q4h
# [12] = 800 mg, Total Daily Dose 800 (mg), bid q4h
# [13] = 1000 mg, Total Daily Dose 1000 (mg), bid q4h
# [14] = 1000 mg, Total Daily Dose 1000 (mg), bid q6h
# [15] = 1400 mg, Total Daily Dose 1400 (mg), bid q4h
# [16] = 1500 mg, Total Daily Dose 1500 (mg), tid q4h
# [17] = 2000 mg, Total Daily Dose 2000 (mg), bid q4h
# [18] = Patient 0053, single 500 mg dose - fed
# [19] = Patient 0054, single 500 mg dose - fed
# [20] = Patient 0061, single 500 mg dose - fed
# [21] = Patient 0070, single 500 mg dose - fed
compound,measurement,setting,value
"CC(=O)c1cc2c(o1)C(=O)c1ccccc1C2=O [Compound 1, 2-acetylnaphtho[2,3-b]furan-4,9-dione]",adverse effects,[1],No signs of any adverse effects
same,"patient exposure, 500 mg three times a day (TID) versus twice daily",[2]; human subjects,not significantly improved
same,Tmax,[2]; [4],3 h
same,AUC(0-t),[2]; [4],2.01 µM·h
same,concentration at 24 h,[2]; [4],30 nM
same,half-life,[2]; [4],1110 min
same,Cmax,[2]; [5],500 nM
same,Tmax,[2]; [5],0.5 h
same,AUC(0-t),[2]; [5],3.44 µM·h
same,concentration at 24 h,[2]; [5],30 nM
same,half-life,[2]; [5],270 min
same,AUC,[2]; [6],8.13 µM·h
same,Cmax,[2]; [6],900 nM
same,Tmax,[2]; [6],8.1 h
same,AUC(0-t),[2]; [6],7.95 µM·h
same,concentration at 24 h,[2]; [6],30 nM
same,half-life,[2]; [6],216 min
same,Cmax,[2]; [7],2240 nM
same,Tmax,[2]; [7],1.5 h
same,AUC(0-t),[2]; [7],12.8 µM·h
same,concentration at 24 h,[2]; [7],70 nM
same,half-life,[2]; [7],312 min
same,Cmax,[2]; [8],1330 nM
same,Tmax,[2]; [8],3.9 h
same,AUC,[2]; [9],38.3 µM·h
same,Cmax,[2]; [9],2920 nM
same,Tmax,[2]; [9],3.8 h
same,AUC(0-t),[2]; [9],33.1 µM·h
same,concentration at 24 h,[2]; [9],240 nM
same,half-life,[2]; [9],342 min
same,AUC,[2]; [10],48.2 µM·h
same,Cmax,[2]; [10],3750 nM
same,Tmax,[2]; [10],7.9 h
same,AUC(0-t),[2]; [10],40.2 µM·h
same,concentration at 24 h,[2]; [10],620 nM
same,half-life,[2]; [10],414 min
same,AUC,[2]; [11],37.1 µM·h
same,Cmax,[2]; [11],2670 nM
same,Tmax,[2]; [11],3.2 h
same,AUC(0-t),[2]; [11],27.8 µM·h
same,concentration at 24 h,[2]; [11],420 nM
same,half-life,[2]; [11],540 min
same,AUC,[2]; [12],27 µM·h
same,Cmax,[2]; [12],3040 nM
same,Tmax,[2]; [12],4.3 h
same,AUC(0-t),[2]; [12],26.1 µM·h
same,concentration at 24 h,[2]; [12],160 nM
same,half-life,[2]; [12],240 min
same,AUC,[2]; [13],50.7 µM·h
same,Cmax,[2]; [13],4970 nM
same,Tmax,[2]; [13],6.6 h
same,AUC(0-t),[2]; [13],45.1 µM·h
same,concentration at 24 h,[2]; [13],290 nM
same,half-life,[2]; [13],396 min
same,AUC,[2]; [14],22.9 µM·h
same,Cmax,[2]; [14],1360 nM
same,Tmax,[2]; [14],5.7 h
same,AUC(0-t),[2]; [14],15.8 µM·h
same,concentration at 24 h,[2]; [14],330 nM
same,half-life,[2]; [14],762 min
same,AUC,[2]; [15],45 µM·h
same,Cmax,[2]; [15],2050 nM
same,Tmax,[2]; [15],2.9 h
same,AUC(0-t),[2]; [15],28.2 µM·h
same,concentration at 24 h,[2]; [15],650 nM
same,half-life,[2]; [15],816 min
same,AUC,[2]; [16],59.9 µM·h
same,Cmax,[2]; [16],3750 nM
same,Tmax,[2]; [16],7.3 h
same,AUC(0-t),[2]; [16],46.4 µM·h
same,concentration at 24 h,[2]; [16],940 nM
same,half-life,[2]; [16],492 min
same,AUC,[2]; [17],45.8 µM·h
same,Cmax,[2]; [17],1690 nM
same,Tmax,[2]; [17],6.3 h
same,AUC(0-t),[2]; [17],25.9 µM·h
same,concentration at 24 h,[2]; [17],800 nM
same,half-life,[2]; [17],1030 min
same,"pharmacokinetics, 500 mg BID (q4h) versus 500 mg QD","[2]; patients, FIG. 1",no significant difference
same,Cmax,[3]; [18],6.61 µM
same,AUC(0-t),[3]; [18],79.6 µM·h
same,Cmax,[3]; [19],6.25 µM
same,AUC(0-t),[3]; [19],49.8 µM·h
same,Cmax,[3]; [20],1.54 µM
same,AUC(0-t),[3]; [20],10.6 µM·h
same,Cmax,[3]; [21],2.25 µM
same,AUC(0-t),[3]; [21],20.1 µM·h
same,β-catenin protein levels,β-catenin,reduced
